Experimental data: patent US20210299286A1, “TETRAZINES FOR HIGH CLICK CONJUGATION YIELD IN VIVO AND HIGH CLICK RELEASE YIELD” (Tagworks Pharmaceuticals B.V., priority 2018, published 2021)

How the values were obtained:
[1] = system: LS174T tumor-bearing mice; experiment: Tumor blocking experiment, mice pretreated with IgG-based ADC CC49-TCO-Dox; assay type: in vivo, mouse; conditions: CC49-TCO-Dox 5 mg/kg, clearing agent, TZ activator, probe [177Lu]Lu-5.1; compared with the other TZ's
Description: (§1) The animal studies were performed in accordance with the principles established by the revised Dutch Act on Animal Experimentation (1997) and were approved by the institutional Animal Welfare Committee of the Maastricht University and Radboud University Nijmegen. The colorectal cancer (LS174T) mouse model was reported in Rossin et al. Bioconjug. Chem., 2016, 27, 1697-1706.
(§2) To assess the in vivo reaction of TZ activators towards TCO-containing ADCs, tumor blocking experiments were performed as described in Rossin et al., Bioconjug. Chem. 2016, 27, 1697-1706.
A series of 3,6-bisalkyl TZ activators (2.1, 2.2, 2.9, 2.11, 2.12) and 3-alkyl-6-pyridyl TZ activators (3.1, 3.2, 3.4) was tested in tumor-bearing mice (n=3-4) pretreated with an IgG-based ADC (CC49-TCO-Dox, DAR ca. 2) at a 5 mg/kg dose. A clearing agent (galactose-albumin-TZ, Rossin et al., J. Nucl. Med. 2013, 54, 1989-1995) was administered to the mice 24 post-ADC injection followed by the TZ activator (dose 10×: ca. 0.033 mmol/kg; close 100×: ca. 0.335 mmol/kg) 2 h later. One-hour after activation the mice were administered the highly reactive radiolabeled probe [^177Lu]Lu-5.1 (ca. 0.335 μmol/kg, ca. 1.5 MBq/mouse) and were euthanized 3 h later. All injections were performed intravenously. Tumors were harvested and the radioactivity was measured by γ-counting along with standards to determine the % injected dose per gram (% ID/g). […]

[2] = In vitro tetrazine stability (decrease of UV absorbance at 520 nm); assay type: physicochemical; conditions: 10% MeCN/PBS; read-out: In vitro tetrazine stability (h), t1/2 (converted)
Description: The stability of tetrazines was evaluated by dissolving them in 10% MeCN/PBS at 37° C. and following the decrease of the tetrazine UV absorbance at 520 nm in time (Table 4).

AVP0458-TCO-MMAE = experiment: MMAE release from diabody ADC with D8-MMAE internal standard (LC-SIM-MS); assay type: biochemical; conditions: 10 equiv of tetrazine, PBS/plasma (1/1), 37° C., after 24 h, n=3
Description: In an alternative method MMAE release from diabody ADC (AVP0458-TCO-MMAE) was determined by using a deuterated internal standard D8-MMAE. ADC (1.1×10^−10 moles bound MMAE) and D8-MMAE (1.1×10^−10 moles) and 10 equiv of tetrazine were incubated in 100 uL PBS/plasma (1/1) at 37° C.

CC49-TCO-Dox [3] = experiment: In vitro Dox release from CC49-TCO-Dox in PBS; assay type: biochemical
Description: (§3) Doxorubicin (Dox) release from the TCO-linked ADC CC49-TCO-Dox with various TZ activators in PBS and 50% mouse serum at 37° C. was evaluated in vitro as described in Rossin et al. Bioconjug. […] The results of these experiments are depicted in Tables 3 (PBS) and 4 (mouse serum). The release reactions were performed in triplicate unless otherwise stated in the result table.

[4] = Second-order reaction rate constant with TCO derivative by UV spectroscopy; assay type: physicochemical; conditions: 25% MeCN/PBS at 20° C.
Description: The second-order reaction rate constants were calculated from the rate at which the absorption at 520 nm (specific for the TZ moiety) decreased (Table 4).

CC49-TCO-Dox [5] = experiment: In vitro Dox release from CC49-TCO-Dox in 50% mouse serum; assay type: biochemical
Description: as §3

[6] = system: LS174T tumor-bearing mice; experiment: Tumor blocking experiment, mice pretreated with diabody-based ADC AVP0458-TCO-MMAE; assay type: in vivo, mouse; conditions: AVP0458-TCO-MMAE ca. 2 mg/kg, activator 48 h later, probe [111In]In-5.1; compared with the other TZ's
Description: as §1, §2
A series of 3-pyrimidyl-6-alkyl TZ activators (4.1, 4.11, 4.13, 4.15, 4.26, 4.28) was then compared to compound 4.12 in LS174T tumor-bearing mice (n=3-5) pretreated with a diabody-based ADC (AVP0458-TCO-MMAE; DAR=4). The mice were injected the ADC at a ca. 2 mg/kg dose followed 48 h later by the activator (dose 1×: ca. 3.35 μmol/kg; dose 2.5×: ca. […]; dose 5×: ca. 0.017 mmol/kg; dose 10×: ca. 0.033 mmol/kg; dose 100×: ca. 0.335 mmol/kg) and, 1 h post-activator, by the [^111In]In-5.1 probe. Three hours ([…], 4.15) or 24 h (4.26, 4.28) post-probe injection the mice were euthanized and the tumor blocking capacity of the various activators at the administered dose (FIG. 2B) was calculated as reported above.

[7] = Control incubation with BSA in the microsomal stability test; assay type: in vitro ADME; conditions: control samples, same concentration of BSA
Description: (§4) The in vitro stability of activators 4.11, 4.13, and 4.15 was tested in the presence of human, mouse, rat and cynomolgus microsomes after 30 min incubation (normalized to 100% at t=0). Control samples were incubated with the same concentration of BSA. The activators (5 μM) were incubated in 20 mM phosphate buffer pH 7.4 containing the microsomes (0.5 mg/mL), 1 mM NADP, 5 mM glucose-6-phosphate, 1 U/mL glucose-6-phosphate dehydrogenase, and 2 mM MgCl2 at 37° C. and the measurements were performed by LC-MS. The amount of activator in solution was quantified using calibration curves.

[8] = In vitro microsomal stability of TZ activators, cynomolgus microsomes; assay type: in vitro ADME; conditions: 5 μM activator, 0.5 mg/mL microsomes, normalized to 100% at t=0, LC-MS
Description: as §4

[9] = In vitro microsomal stability of TZ activators, mouse microsomes; assay type: in vitro ADME; conditions: 5 μM activator, 0.5 mg/mL microsomes, normalized to 100% at t=0, LC-MS
Description: as §4

[10] = In vitro microsomal stability of TZ activators, rat microsomes; assay type: in vitro ADME; conditions: 5 μM activator, 0.5 mg/mL microsomes, normalized to 100% at t=0, LC-MS
Description: as §4

[11] = In vitro microsomal stability of TZ activators, human microsomes; assay type: in vitro ADME; conditions: 5 μM activator, 0.5 mg/mL microsomes, normalized to 100% at t=0, LC-MS
Description: as §4

half-life [2]	In vitro microsomal stability of TZ activators after 30 min incubation at 37° C.: BSA [7]	In vitro microsomal stability of TZ activators after 30 min incubation at 37° C.: Cynomolgus [8]	In vitro microsomal stability of TZ activators after 30 min incubation at 37° C.: Mouse [9]	In vitro microsomal stability of TZ activators after 30 min incubation at 37° C.: Rat [10]	In vitro microsomal stability of TZ activators after 30 min incubation at 37° C.: Human [11]	Structure (SMILES)	tumor blocking capacity (FIG. 2A) [1]	induced MMAE release (%) from AVP0458-TCO-MMAE (AVP0458-TCO-MMAE)	In vitro Dox release (%) from CC49-Dox at 37° C. in PBS: 1 h (CC49-TCO-Dox [3]; 1 h)	In vitro Dox release (%) from CC49-Dox at 37° C. in PBS: 2 h (CC49-TCO-Dox [3]; 2 h)	In vitro Dox release (%) from CC49-Dox at 37° C. in PBS: 3 h (CC49-TCO-Dox [3]; 3 h)	In vitro Dox release (%) from CC49-Dox at 37° C. in PBS: 24 h (CC49-TCO-Dox [3]; 24 h)	In vitro Dox release (%) from CC49-Dox at 37° C. in PBS: 48 h (CC49-TCO-Dox [3]; 48 h)	reactivity (k2) [4]	In vitro Dox release (%) from CC49-Dox at 37° C. in 50% mouse serum: 1 h (CC49-TCO-Dox [5]; 1 h)	In vitro Dox release (%) from CC49-Dox at 37° C. in 50% mouse serum: 2 h (CC49-TCO-Dox [5]; 2 h)	In vitro Dox release (%) from CC49-Dox at 37° C. in 50% mouse serum: 3 h (CC49-TCO-Dox [5]; 3 h)	tumor blocking capacity (FIG. 2B) [6]
14 h						Cc1nnc(C)nn1 [Compound 2.1, 3,6-dimethyl-1,2,4,5-tetrazine]	perform much worse	95 ± 0.4%	76.1%	78.5%	78.8%	80.6%	81.5%	14 M⁻¹ s⁻¹	64.6 ± 1.0%	68.7 ± 1.1%	69.7 ± 1.0%	
10 h						Cc1nnc(-c2ncccn2)nn1 [Compound 4.1, 3-methyl-6-(pyrimidin-2-yl)-1,2,4,5-tetrazine, reference compound]		69 ± 0.0%						250 M⁻¹ s⁻¹				perform much worse
	87.5%	85.6 ± 0.5%	81.2%	91.1%	87.7%	CN(CCc1nnc(-c2ncccn2)nn1)C(=O)CCCC(=O)NC(CO)(CO)CO [Compound 4.15]		55 ± 0.4%										
